Where “and” joins values, the source holds several entries; their conditions need not be identical. Identical values can stand only once.

This experiment deals with mouse splenocytes. The experiment can be described thus: in vitro stimulation of mouse splenocytes/lymphocytes, cytokine release measured in supernatant by protein microarray chip. Format: cell-based. As to conditions: for IL-6 produced: Example 1 and b94-b99; for cytokine milieu (TH1/TH2/TH17 bias): profile of AP-treated mouse splenocytes; for GCSF levels: Example 2 and b94-b99. How it is done: A total of 2×10^5 mouse splenocytes per well were cultured in a humidified atmosphere at 37° C. and 5% CO2 in round-bottomed 96-well culture plates for five days with the AP compounds […]. Concanavalin A ([…]) and culture media were used as positive and negative controls, respectively. Plates were centrifuged at 1,200 RPM for five minutes, and supernatants were collected. The resulting cytokine profile produced after lymphocyte stimulation was analyzed using a fluorescently-labeled protein microarray chip as indicated by the manufacturer (RayBiotech, Norcross, Ga., USA).
The immunomodulatory effect of the AP compounds was assessed by in vitro stimulation of mouse lymphocytes for five days.

The mark [1] stands for this setting: mouse splenocytes, five days, listed as AP-311.
The mark [2] stands for this setting: mouse splenocytes, five days, listed as AP-102.
[3] abbreviates: mouse splenocytes, five days, listed as AP-312.
Setting [4] is: mouse splenocytes, five days, listed as AP-103.

In the case of `COc1ccc(C2C3=C(COC3=O)N(CCO)c3cc4c(cc32)OCCO4)c(OC)c1OC` (stereo not drawn) [AP311], the “cytokine milieu (TH1/TH2/TH17 bias)” value is “strong TH2 cytokine milieu, followed by a TH17, and a smaller TH1 cytokine profile”. Under “mouse splenocytes, five days”, the IL-15 induced is recorded as 56 pg/mL, the IL-23 induced came to 27 pg/mL, the IL-6 produced is 184 pg/mL and the “IL-6 induced (summary / preliminary data)” value is reported as 551 pg/mL. Under setting [1], this compound had an IL-6 produced of 183.76 pg/mL and an IL-23 induced of 26.66 pg/mL.

For the compound `COc1ccc(C2C3=C(COC3=O)N(CCO)c3cc4c(cc32)OCO4)cc1OC` (stereo not drawn) [AP102], the “cytokine milieu (TH1/TH2/TH17 bias)” value is “highest TH17 cytokine biased, followed by a close TH2 biased and a smaller TH1 cytokine milieu”. For the setting “mouse splenocytes, five days”, the IL-2 induced was determined as 17 pg/mL, the “IL-12 (IL-12p70) induced” value is 29 pg/mL, the IL-17 induced stood at 294 pg/mL and the IL-6 produced is given as 257 pg/mL. Further, under “mouse splenocytes, five days”, the GCSF levels is listed as 736 pg/mL, the “G-CSF induced (summary / preliminary data)” value amounted to 2208 pg/mL and the “IL-6 induced (summary / preliminary data)” value amounted to 772 pg/mL. Also, under setting [2], the IL-6 produced came to 257.35 pg/mL, the GCSF levels was determined as 735.83 pg/mL, the IL-2 induced is 17.36 pg/mL and the “IL-12 (IL-12p70) induced” value is 29.09 pg/mL.

`COc1cccc(C2C3=C(COC3=O)N(CCO)c3cc4c(cc32)OCCO4)c1OC` (stereo not drawn) [AP312]: the “cytokine milieu (TH1/TH2/TH17 bias)” value was “strong TH2 cytokine milieu, followed by a TH17, and a smaller TH1 cytokine profile”. Where the note is “mouse splenocytes, five days”, the IL-1b induced is reported as 11.89 pg/mL, the “IL-12 (IL-12p70) induced” value is 13 pg/mL, the IL-6 produced amounted to 270 pg/mL and the “IL-6 induced (summary / preliminary data)” value is on record as 810 pg/mL. Further, under setting [3], the IL-6 produced was determined as 269.89 pg/mL and the “IL-12 (IL-12p70) induced” value is recorded as 27.89 pg/mL.

Turning to `COc1cc(C2C3=C(COC3=O)N(CCO)c3cc4c(cc32)CCC4)cc(OC)c1O` (stereo not drawn) [AP205], the “cytokine milieu (TH1/TH2/TH17 bias)” value was “high TH2-type cytokines, but equally comparably low TH1 and TH2”. Under “mouse splenocytes, five days”, the IL-1a induced is 20 pg/mL and 20.29 pg/mL; the IL-1b induced was 19.45 pg/mL; the IL-9 induced was 30 pg/mL and 30.45 pg/mL; the “IL-12 (IL-12p70) induced” value was 60 pg/mL and 60.14 pg/mL. For the same compound, for the setting “mouse splenocytes, five days”, the IL-15 induced is 94 pg/mL and 94.04 pg/mL; the IL-23 induced was 80 pg/mL and 79.96 pg/mL; the IL-6 produced is 1445 pg/mL and 1444.71 pg/mL; the GCSF levels was 2336 pg/mL and 2336.49 pg/mL. For the same compound, where the note is “mouse splenocytes, five days”, the “G-CSF induced (summary / preliminary data)” value was determined as 7166 pg/mL and the “IL-6 induced (summary / preliminary data)” value was found to be 4351 pg/mL.

For `O=C1OCC2=C1C(c1ccccc1)c1cc3c(cc1N2CCO)OCO3` (stereo not drawn) [AP104], the “cytokine milieu (TH1/TH2/TH17 bias)” value is “high TH2-type cytokines, but equally comparably low TH1 and TH2”. For the setting “mouse splenocytes, five days”, the IFN-gamma induced was found to be 104.58 pg/mL; the “IL-2p70 induced (so in the source)” value amounted to 21.99 pg/mL; the IL-10 induced was 14 pg/mL and 13.78 pg/mL; the “IL-12 (IL-12p70) induced” value is 22 pg/mL. In addition, under “mouse splenocytes, five days”, the IL-23 induced was 58 pg/mL and 58.48 pg/mL; the IL-6 produced was 261 pg/mL and 260.85 pg/mL; the GCSF levels is 690 pg/mL and 690.39 pg/mL; the “G-CSF induced (summary / preliminary data)” value was 2071 pg/mL. For the same compound, the “IL-6 induced (summary / preliminary data)” value (mouse splenocytes, five days) came out at 782 pg/mL.

As to `COc1cccc(C2C3=C(COC3=O)N(CCO)c3cc4c(cc32)OCO4)c1` (stereo not drawn) [AP103], the “cytokine milieu (TH1/TH2/TH17 bias)” value is “high TH2-type cytokines, but equally comparably low TH1 and TH2”. Moreover, under “mouse splenocytes, five days”, the IL-1b induced is recorded as 3.95 pg/mL, the “IL-12 (IL-12p70) induced” value is recorded as 21 pg/mL, the IL-6 produced is recorded as 375 pg/mL and the GCSF levels was 858 pg/mL. Further, under “mouse splenocytes, five days”, the “G-CSF induced (summary / preliminary data)” value was determined as 2575 pg/mL and the “IL-6 induced (summary / preliminary data)” value is listed as 1125 pg/mL. In addition, under setting [4], the IL-6 produced stood at 535.06 pg/mL, the GCSF levels was determined as 858.15 pg/mL and the “IL-12 (IL-12p70) induced” value is on record as 35.70 pg/mL.

These data come from US12036270B2, “Method for immunomodulation of using aza-podophyllotoxin derivatives” (Sistema Universitario Ana G. Mendez, priority 2015, dated 2024).
